Experiments:
[1] = target: T1, 5-HT1A (Rattus norvegicus, UniProt P19327); assay: inhibition of tritiated ligand ([3H]8-OH-DPAT) binding to 5-HT1A receptors, rat hippocampal tissue; set-up: species or system male Charles River CD rats; conditions: for inhibition at 1 µM: at 10^-6 M, read-out: % displacement of specific binding, 5-HT1A; for Ki: 25° C., 30 minutes, pH 7.7
T1 construct: Hippocampal tissue from the brains of male Charles River CD rats; from tissue; host or cells: rat hippocampus (male Charles River CD rats), crude membrane pellet
T1 sequence (P19327 1-422): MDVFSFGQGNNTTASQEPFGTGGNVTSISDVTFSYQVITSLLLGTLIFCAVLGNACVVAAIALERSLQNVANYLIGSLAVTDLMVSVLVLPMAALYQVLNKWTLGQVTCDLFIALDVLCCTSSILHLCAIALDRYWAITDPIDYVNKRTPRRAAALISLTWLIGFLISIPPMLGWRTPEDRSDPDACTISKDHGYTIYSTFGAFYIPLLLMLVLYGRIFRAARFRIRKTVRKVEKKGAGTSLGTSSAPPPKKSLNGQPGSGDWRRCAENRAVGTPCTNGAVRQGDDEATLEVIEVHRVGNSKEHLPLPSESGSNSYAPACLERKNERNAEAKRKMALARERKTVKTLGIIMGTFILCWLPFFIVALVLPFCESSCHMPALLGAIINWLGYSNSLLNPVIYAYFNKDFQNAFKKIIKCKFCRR
Experimental: Hippocampal tissue from the brains of male Charles River CD rats weighing between 150-250 g were homogenised in ice-cold 50 mM Tris-HCl buffer (pH 7.7) when measured at 25° C., 1:40 w/v) and centrifuged at 30,000 g at 4° C. for 10 minutes. The pellet was rehomogenised in the same buffer, incubated at 37° C. for 10 minutes and centrifuged at 30,000 g at 4° C. for 10 minutes. The final pellet was resuspended in 50 mM Tris-HCl buffer (pH 7.7) containing 4 mM CaCl2, 0.1% L-ascorbic acid and 10 μM pargyline hydrochloride (equivalent to 6.25 mg wet weight of tissue/ml) and used immediately in the binding assay. Aliquots (400 μl; equivalent to 2.5 mg wet weight of tissue/tube) of this suspension were added to tubes containing the ligand (50 μl; 2 nM) and distilled water (50 μl; total binding) or 5-HT (50 μl; 10 μM; non-specific binding) or test compound (50 μl; at a single concentration of 10^-6 M or at 10 concentrations ranging from 10^-11 -10^-3 M). The ligand was [^3 H]8-hydroxy-2-(dipropylamino)tetralin ([^3 H]8-OH-DPAT) and the mixture was incubated at 25° C. for 30 minutes before the incubation was terminated by rapid filtration.
The filters were washed with ice-cold Tris-HCl buffer and dried. The filters were punched out into vials, scintillation fluid added and radioactivity determined by liquid scintillation counting. The percentage displacement of specific binding of the tritiated ligand was calculated for the single concentration (10^-6 M) of test compound. Displacement curves were then produced for those compounds which displaced ≥50% of specific binding of the tritiated ligand at 10^-6 M using a range of concentrations of the compound. The concentration which gave 50% inhibition of specific binding (IC50) was obtained from the curve. The inhibition coefficient Ki was then calculated using the formula [formula] in which [ligand] is the concentration of the tritiated ligand used and KD Is the equilibrium dissociation constant for the ligand.

[2] = target: T2, D2-like dopamine receptors (Rattus norvegicus, UniProt P61169); assay: inhibition of tritiated (S)-sulpiride binding to D2-like dopamine receptors, rat striatal tissue; set-up: species or system male Charles River CD rats; conditions: 4° C., 40 minutes, pH 7.7
T2 construct: Striatal tissue from the brains of male Charles River CD rats; from tissue; host or cells: rat striatum (male Charles River CD rats), crude membrane pellet
Experimental: Striatal tissue from the brains of male Charles River CD rats weighing between 140-250 g were homogenised in ice-cold 50 mM Tris-HCl buffer (pH 7.7 when measured at 25° C.) and centrifuged at 40,000 g for 10 minutes. The pellet was resuspended in Tris salts buffer (50 mM Tris-HCl buffer containing 120 mM NaCl, 5 mM KCl, 2 mM CaCl2 and 1 mM MgCl2 with the addition of 6 mM ascorbic acid; pH 7.7 when measured at 25° C.), and again centrifuged at 40,000 g for 10 minutes. The final pellet was stored at -80° C. Before each test the pellet was resuspended in Tris salts buffer (equivalent to 2 mg wet weight of tissue/ml). Aliquots (720 μl; equivalent to 1.44 mg wet weight of tissue/tube) of this suspension were then added to tubes containing the ligand (40 μl; 1 nM) and Tris salts buffer (40 μl; total binding) or spiroperidol (40 μl; 10 nM; non-specific binding) or test compound (40 μl; at a single concentration of 10^-6 M or at 6 concentrations ranging from 10^-11 -10^-4 M). The ligand was tritiated (S)-sulpiride and the mixture was incubated at 4° C. for 40 minutes before the incubation was terminated by rapid filtration.
The filters were washed with ice-cold Tris-HCl buffer and dried. The filters were punched out in to vials, scintillation fluid added and were left for about 20 hours before being counted by scintillation spectrophotometry. The percentage displacement of specific binding of the tritiated ligand was calculated for the single concentration (10^-6 M) of test compound. Displacement curves were then produced over a range of concentrations for those compounds which displaced ≥50% of specific binding of the tritiated ligand at 10^-6 M. The concentration which gave a 50% inhibition of specific binding (IC50) was obtained from the curve. The inhibition coefficient Ki was then calculated using the formula [formula] in which [ligand] is the concentration of the tritiated ligand used and KD is the equilibrium dissociation constant for the ligand.

T2 sequence (P61169 whole entry): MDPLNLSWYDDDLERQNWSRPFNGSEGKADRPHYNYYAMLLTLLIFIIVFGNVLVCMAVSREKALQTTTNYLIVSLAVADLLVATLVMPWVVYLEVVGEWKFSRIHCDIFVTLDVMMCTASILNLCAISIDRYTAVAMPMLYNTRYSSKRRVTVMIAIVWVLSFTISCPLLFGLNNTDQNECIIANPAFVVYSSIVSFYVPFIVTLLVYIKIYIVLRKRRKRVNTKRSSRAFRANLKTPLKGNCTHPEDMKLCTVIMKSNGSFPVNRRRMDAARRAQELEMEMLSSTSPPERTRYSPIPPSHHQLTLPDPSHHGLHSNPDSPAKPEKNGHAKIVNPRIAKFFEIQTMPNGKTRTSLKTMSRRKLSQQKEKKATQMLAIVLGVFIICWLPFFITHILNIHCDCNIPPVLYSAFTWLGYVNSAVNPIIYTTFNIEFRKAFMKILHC

Row | Structure (SMILES) | inhibition at 1 µM [1] [%] | Ki [2] [nM] | Ki [1] [nM]
1 | O=S(=O)(NCC1CCN(C[C@H]2COc3ccc(Cl)cc3O2)CC1)c1cc2nnoc2c2ccccc12 [Example 20, (S)-N-{[1-(7-Chloro-1,4-benzodioxan-2-ylmethyl)-4-piperidyl]methyl}naphth [2,1-d][1,2,3]oxadiazole-5-sulphonamide] | 75 | 235 | 
2 | O=S(=O)(NCC1CCN(C[C@H]2COc3ccc(Cl)cc3O2)CC1)c1cccc(C(F)(F)F)c1 [Example 28, (S)-N-{[1-(7-Chloro-1,4-benzodioxan-2-ylmethyl)-4-piperidyl]methyl}-3-trifluoromethylbenzenesulphonamide] | 68 | 352 | 
3 | O=S(=O)(NCC1CCN(C[C@H]2COc3ccc(Cl)cc3O2)CC1)c1ccc(C(F)(F)F)cc1Cl [Example 17, (S)-2-Chloro-N-{[1-(7-chloro-1,4-benzodioxan-2-ylmethyl)-4-piperidyl]methyl}-4-trifluoromethylbenzenesulphonamide] | 88 | 519 | 
4 | Cc1ccc(F)cc1S(=O)(=O)NCC1CCN(C[C@H]2COc3ccc(Cl)cc3O2)CC1 [Example 35, (S)-N-{[1-(7-Chloro-1,4-benzodioxan-2-ylmethyl)-4-piperidyl]methyl}-5-fluoro-2-methylbenzenesulphonamide] | 81 | 328 | 
5 | COc1ccc(Cl)cc1S(=O)(=O)NCC1CCN(C[C@H]2COc3ccc(Cl)cc3O2)CC1 [Example 27, (S)-5-Chloro-N-{[1-(7-chloro-1,4-benzodioxan-2-ylmethyl)-4-piperidyl]methyl}-2-methoxybenzenesulphonamide] | 68 | 351 | 
6 | Cc1ccc(S(=O)(=O)NCC2CCN(C[C@H]3COc4ccc(Cl)cc4O3)CC2)cc1 [Example 33, (S)-N-{[1-(7-Chloro-1,4-benzodioxan-2-ylmethyl)-4-piperidyl]methyl}-4-methylbenzenesulphonamide] | 91 | 301 | 
7 | O=S(=O)(NCC1CCN(C[C@H]2COc3ccc(Cl)cc3O2)CC1)c1c(F)cccc1F [Example 10, (S)-(-)-N-{[1-(7-chloro-1,4-benzodioxan-2-ylmethyl)-4-piperidyl]methyl}-2,6-difluorobenzenesulphonamide] |  | 50.1 | 7.4
8 | O=S(=O)(NCC1CCN(C[C@H]2COc3ccc(Cl)cc3O2)CC1)c1ccc(OC(F)(F)F)cc1 [Example 29, (S)-N-{[1-(7-Chloro-1,4-benzodioxan-2-ylmethyl)-4-piperidyl]methyl}-4-trifluoromethoxybenzenesulphonamide] | 67 | 357 | 
9 | O=S(=O)(NCC1CCN(C[C@H]2COc3ccc(Cl)cc3O2)CC1)c1cccnc1 [Example 3, (S)-(-)-N-{[1-(7-chloro-1,4-benzodioxan-2-ylmethyl)-4-piperidyl]methyl}pyridine-3-sulphonamide 0.8 hydrate] |  | 28 | 31.6

Source: patent publication US6136825A, “Sulfonamide compounds having 5-HT receptor activity” (Knoll Aktiengesellschaft, priority 1996, dated 2000)
